The subject of data set [1] is rat primary hepatocytes.
Data set [2] relates to HepG2 cells. The conditions noted are these: cited from earlier work.
For data set [3], the system named is HepG2 cells. As to the kind of experiment: cells. The conditions noted are these: Homo sapiens; for IC50: HepG2, read-out: MMP assays IC50 (µM) HepG2; for Emax: HepG2, read-out: MMP assays efficacy (%) HepG2.
Data set [4] concerns rat primary hepatocytes. As to the kind of experiment: MMP assay in rat primary hepatocytes. The conditions noted are these: for IC50: Rattus norvegicus, Hepatocyte, read-out: MMP assays IC50 (µM) Rat Hepatocytes.
Setting [5] is: read-out: MMP assays IC50 (µM), qHTS-HepG2.
Where [6] appears, read: read-out: MMP assays IC50 (µM) qHTS-HepG2.

Each structure is given as a SMILES string. Counter-ions that a name gives are not always drawn. Like-named read-outs stand apart in the source and are kept apart here.

A word on the IC50: it is the concentration needed to halve the response being measured. With `Oc1c(Cl)cc(Cl)cc1Sc1cc(Cl)cc(Cl)c1O` [Sodium bithionolate], in data set [1], the “MMP assays efficacy (%) Rat Hepatocytes” value is “inactive”. In addition, the “MMP assays efficacy (%) qHTS-HepG2” value in data set [2] is on record as -123±11%. For the same compound, in data set [2] (setting [5]), the IC50 is 0.91 ± 0.78 µM. In addition, in data set [3], the IC50 is 0.89 µM and the Emax turned out to be 116%. The “MMP assays IC50 (µM) Rat Hepatocytes” value in data set [4] is “inactive”.

As to `CCC(C)c1ccc(O)cc1` (stereo not drawn) [4-(Butan-2-yl)phenol], the “MMP assays efficacy (%) Rat Hepatocytes” value in data set [1] was “inactive”. In addition, in data set [2], the “MMP assays efficacy (%) qHTS-HepG2” value is recorded as -101±7%. Moreover, the IC50 in data set [2] (setting [6]) is 32 ± 3.64 µM; in data set [3], 35.5 µM. The Emax in data set [3] was 77%. In data set [4], the “MMP assays IC50 (µM) Rat Hepatocytes” value was “inactive”.

`O=S1(=O)OCC2C(CO1)C1(Cl)C(Cl)=C(Cl)C2(Cl)C1(Cl)Cl` (stereo not drawn) [Endosulfan sulfate]: the “MMP assays efficacy (%) Rat Hepatocytes” value in data set [1] is reported as -80+6%. In addition, the “MMP assays efficacy (%) qHTS-HepG2” value in data set [2] is -123±10%. The IC50 was 16 ± 2.05 µM in data set [2] (setting [6]), 17.8 µM in data set [3] and 25.8 ± 10.1 µM in data set [4]. Further, in data set [3], the Emax was found to be 103%.

With `O=C(Nc1ccccc1)c1ccccc1O` [Salicylanilide], the “MMP assays efficacy (%) Rat Hepatocytes” value in data set [1] was -91±5%. For the same compound, the “MMP assays efficacy (%) qHTS-HepG2” value in data set [2] was -125±11%. Besides, the IC50 in data set [2] (setting [5]) is 3.71 ± 1.27 µM; in data set [3] it was 3.98 µM; in data set [4], 29.1 ± 12.2 µM. Further, the Emax in data set [3] amounted to 101%.

For the compound `CCN1/C(=C/C=C/C=C/c2sc3ccccc3[n+]2CC)Sc2ccccc21` [Dithiazanine iodide], the “MMP assays efficacy (%) Rat Hepatocytes” value in data set [1] is -59±11%. In data set [2], the “MMP assays efficacy (%) qHTS-HepG2” value is recorded as -85±6%. The IC50 in data set [2] (setting [6]) was 0.1 ± 0.15 µM; in data set [3], 0.0275 µM; in data set [4], 0.98 ± 0.16 µM. For the same compound, in data set [3], the Emax came to 88%.

On to `O=C1C(I)=CC(=C(c2cc(I)c(O)c(I)c2)c2ccccc2C(=O)O)C=C1I` [Iodophthalein], for which the “MMP assays efficacy (%) Rat Hepatocytes” value in data set [1] is recorded as -96±3%. The “MMP assays efficacy (%) qHTS-HepG2” value in data set [2] is recorded as -95±6%. Further, the IC50 is 5.31 ± 1.76 µM in data set [2] (setting [5]), 4.35 µM in data set [3] and 7.32 ± 0.6 µM in data set [4]. Moreover, the Emax in data set [3] amounted to 98%.

In the case of `Oc1cc(Cl)c(Cl)c(Cl)c1Cl` [2,3,4,5-Tetrachlorophenol], the “MMP assays efficacy (%) Rat Hepatocytes” value in data set [1] is given as -76±25%. Also, the “MMP assays efficacy (%) qHTS-HepG2” value in data set [2] is recorded as -99±11%. Moreover, the IC50 was 4.93 ± 2.04 µM in data set [2] (setting [6]), 7.94 µM in data set [3] and 11.6 ± 5.42 µM in data set [4]. In addition, in data set [3], the Emax came to 121%.

As for `CC(=O)Oc1ccccc1C(=O)Nc1ncc([N+](=O)[O-])s1` [Nitazoxanide], in data set [1], the “MMP assays efficacy (%) Rat Hepatocytes” value was -94±13%. The “MMP assays efficacy (%) qHTS-HepG2” value in data set [2] is -94±10%. Also, the figures for the IC50 in data set [2] (setting [5]), in data set [3] and in data set [4] were 1.04 ± 0.96 µM, 1.26 µM and 6.94 ± 4.36 µM, respectively. Also, the Emax in data set [3] was 89%.

As for `O=C(Nc1ccccc1)Nc1ccnc(Cl)c1` [Forchlorfenuron], the “MMP assays efficacy (%) Rat Hepatocytes” value in data set [1] is -108±37%. Moreover, in data set [2], the “MMP assays efficacy (%) qHTS-HepG2” value is reported as -112±3%. Moreover, the IC50 is 0.45 ± 0.13 µM in data set [2] (setting [5]), 1 µM in data set [3] and 2.19 ± 1.97 µM in data set [4]. In addition, the Emax in data set [3] amounted to 104%.

For the compound `Cc1ccccc1C(=O)Nc1ccc(C(=O)N2CCCC(O)c3cc(Cl)ccc32)c(C)c1` (stereo not drawn) [Tolvaptan], the “MMP assays efficacy (%) Rat Hepatocytes” value in data set [1] is given as -67±60%. The “MMP assays efficacy (%) qHTS-HepG2” value in data set [2] is on record as -65±11%. The IC50 in data set [2] (setting [5]) is 17.4 ± 8.01 µM; in data set [3] it was 19.4 µM; in data set [4], 17.4 ± 2 µM. The Emax in data set [3] was determined as 50%.

As to `CC1(C(=O)Nc2ccc(O)c(Cl)c2Cl)CCCCC1` [Fenhexamid], the “MMP assays efficacy (%) Rat Hepatocytes” value in data set [1] is -62±26%. Moreover, the “MMP assays efficacy (%) qHTS-HepG2” value in data set [2] is listed as -88±22%. Also, the values for the IC50 in data set [2] (setting [6]), in data set [3] and in data set [4] were 8.31 ± 1.15 µM, 17.8 µM and 36.7 ± 21.2 µM, respectively. In addition, in data set [3], the Emax was determined as 98%.

Consider `CC(C)(C)c1cc(O)c(C(C)(C)C)cc1O` [2,5-Di-tert-butylbenzene-1,4-diol], for which, in data set [1], the “MMP assays efficacy (%) Rat Hepatocytes” value is listed as -73±5%. Further, in data set [2], the “MMP assays efficacy (%) qHTS-HepG2” value was -107±12%. The IC50 in data set [2] (setting [6]) was 7.41 ± 1.27 µM; in data set [3], 7.94 µM; in data set [4], 39.1 ± 15.5 µM. Also, the Emax in data set [3] came to 98%.

Consider `CC(NCCC(c1ccccc1)c1ccccc1)c1ccccc1` (stereo not drawn) [Fendiline hydrochloride], for which the “MMP assays efficacy (%) Rat Hepatocytes” value in data set [1] is “inactive”. The “MMP assays efficacy (%) qHTS-HepG2” value in data set [2] is on record as -79±12%. The IC50 in data set [2] (setting [6]) was 10.3 ± 1.55 µM; in data set [3], 9.75 µM. Besides, the Emax in data set [3] came out at 87%. Moreover, the “MMP assays IC50 (µM) Rat Hepatocytes” value in data set [4] was “inactive”.

Regarding `COc1cc(NS(C)(=O)=O)ccc1Nc1c2ccccc2nc2ccccc12` [Amsacrine hydrochloride], the “MMP assays efficacy (%) Rat Hepatocytes” value in data set [1] is reported as -110±40%. For the same compound, the “MMP assays efficacy (%) qHTS-HepG2” value in data set [2] is -75±13%. The IC50 in data set [2] (setting [6]) was 10.3 ± 2.45 µM; in data set [3], 56.2 µM; in data set [4], 37.6 ± 3.06 µM. Also, the Emax in data set [3] stood at 110%.

Take `Cc1cc(O)c2c3c4c(cc(O)c13)C(C)(C)C(=O)c1c(O)cc(O)c(c1-4)C2=O` [Geliomycin]: the “MMP assays efficacy (%) Rat Hepatocytes” value in data set [1] is listed as -101±18%. Also, the “MMP assays efficacy (%) qHTS-HepG2” value in data set [2] is given as -120±11%. Further, the IC50 in data set [2] (setting [5]) was 0.52 ± 0.04 µM; in data set [3], 0.19 µM; in data set [4] it was 0.55 ± 0.31 µM. In addition, the Emax in data set [3] was 94%.

With `C#C[C@]1(O)CC[C@H]2[C@@H]3CCc4cc(O)ccc4[C@H]3CC[C@@]21C` [Compound 17alpha-Ethinylestradiol], the “MMP assays efficacy (%) Rat Hepatocytes” value in data set [1] is listed as -42±1%. For the same compound, the “MMP assays efficacy (%) qHTS-HepG2” value in data set [2] is reported as -95±9%. In addition, the IC50 in data set [2] (setting [6]) is 19.1 ± 5.99 µM; in data set [3], 15.5 µM; in data set [4], 18.4 ± 1.5 µM. Besides, the Emax in data set [3] is 107%.

`C#C[C@]1(O)CC[C@H]2[C@@H]3CCC4=CCCC[C@@H]4[C@H]3C(=C)C[C@@]21CC` [Desogestrel]: in data set [1], the “MMP assays efficacy (%) Rat Hepatocytes” value was “inactive”. In data set [2], the “MMP assays efficacy (%) qHTS-HepG2” value is recorded as -125±21%. For the same compound, the IC50 was 22.3 ± 2.11 µM in data set [2] (setting [6]) and 27.5 µM in data set [3]. In data set [3], the Emax was determined as 84%. Moreover, in data set [4], the “MMP assays IC50 (µM) Rat Hepatocytes” value was “inactive”.

Turning to `Oc1ccc(C2(c3ccc(O)cc3)CCCCC2)cc1` [Bisphenol Z], in data set [1], the “MMP assays efficacy (%) Rat Hepatocytes” value is given as -34±12%. The “MMP assays efficacy (%) qHTS-HepG2” value in data set [2] is recorded as -101±12%. For the same compound, the IC50 in data set [2] (setting [6]) is 22.2 ± 5.51 µM; in data set [3] it was 19.9 µM; in data set [4], 14.7 ± 15.1 µM. In addition, the Emax in data set [3] was determined as 113%.

In the case of `CC(C)CC(=O)C1C(=O)c2ccccc2C1=O` [2-Isovaleryl-1,3-indanedione], the “MMP assays efficacy (%) Rat Hepatocytes” value in data set [1] is reported as -107±61%. Also, in data set [2], the “MMP assays efficacy (%) qHTS-HepG2” value is listed as -99±5%. For the same compound, the IC50 in data set [2] (setting [6]) was 5.24 ± 0.9 µM; in data set [3], 56.2 µM; in data set [4] it was 22.2 ± 11.1 µM. Also, in data set [3], the Emax turned out to be 108%.

With `COC(=O)N(OC)c1ccccc1COc1ccn(-c2ccc(Cl)cc2)n1` [Pyraclostrobin], the “MMP assays efficacy (%) Rat Hepatocytes” value in data set [1] was -121±32%. Besides, the “MMP assays efficacy (%) qHTS-HepG2” value in data set [2] is listed as -116±2%. The IC50 in data set [2] (setting [5]) was 6.35 ± 1.92 µM; in data set [3], 1.26 µM; in data set [4] it was 9.04 ± 1.89 µM. Besides, the Emax in data set [3] came out at 118%.
